Measured values from the supplement of paper PMC11061612.

What was measured:
[1] = tested on: G-401 (Other Solid Carcinomas); experiment: Bliss excess, mean over the matrix (fraction); higher = more synergy
Outline: (§1)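 Cell lines in DMEM/F12 or RPMI with 10% FBS were plated in 1536-well plates, held 24 hours at 37°C, 5% CO2, then given two-drug dose matrices for 72 hours (DMSO typically 0.2%). Viability was read by CellTiter-Glo 2.0 luminescence and scaled as inhibition from 0 (vehicle wells) to 1 (blank wells). Combination Emax is the second-highest inhibition in the matrix; Bliss excess is observed combination effect minus expected EA + EB − EA·EB, EA and EB being single-agent effects.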

[2] = tested on: HCC1937 (Breast Carcinoma); experiment: as above
Outline: as §1

[3] = tested on: HCC2998 (Colorectal Carcinoma); experiment: as above
Outline: as §1

[4] = tested on: Hey (Ovarian Carcinoma); experiment: as above
Outline: as §1

[5] = tested on: NCI-H1838 (Lung Adenocarcinoma); experiment: as above
Outline: as §1

[6] = tested on: OACM5-1 (Esophageal Adenocarcinoma); experiment: as above
Outline: as §1

[7] = tested on: ALL-SIL (T-Lymphoblastic Leukemia); experiment: combination Emax (second highest fraction inhibited in the dose matrix, 72 h); higher = more inhibition; extreme values may be limits of the assay
Outline: as §1

[8] = tested on: CADO-ES1 (Ewing's Sarcoma); experiment: as above
Outline: as §1

[9] = tested on: EJM (Plasma Cell Myeloma); experiment: as above
Outline: as §1

[10] = tested on: EW-1 (Ewing's Sarcoma); experiment: as above
Outline: as §1

[11] = tested on: G-401 (Other Solid Carcinomas); experiment: as above
Outline: as §1

[12] = tested on: HCC1500 (Breast Carcinoma); experiment: as above
Outline: as §1

[13] = tested on: HCC1937 (Breast Carcinoma); experiment: as above
Outline: as §1

[14] = tested on: Hey (Ovarian Carcinoma); experiment: as above
Outline: as §1

[15] = tested on: LC-1-sq (Squamous Cell Lung Carcinoma); experiment: as above
Outline: as §1

[16] = tested on: NCI-H1092 (Small Cell Lung Carcinoma); experiment: as above
Outline: as §1

[17] = tested on: NCI-H1838 (Lung Adenocarcinoma); experiment: as above
Outline: as §1

[18] = tested on: NCI-H650 (Lung Adenocarcinoma); experiment: as above
Outline: as §1

[19] = tested on: OACM5-1 (Esophageal Adenocarcinoma); experiment: as above
Outline: as §1
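Throughout, for Bliss excess, mean over the matrix: after 72 h of two-drug dosing.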

Structure (SMILES)	Bliss excess [1]	Bliss excess [2]	Bliss excess [3]	Bliss excess [4]	Bliss excess [5]	Bliss excess [6]	combination Emax [7]	combination Emax [8]	combination Emax [9]	combination Emax [10]	combination Emax [11]	combination Emax [12]	combination Emax [13]	combination Emax [14]	combination Emax [15]	combination Emax [16]	combination Emax [17]	combination Emax [18]	combination Emax [19]
CN(CCO)CC[C@H](CSc1ccccc1)Nc1ccc(S(=O)(=O)NC(=O)c2ccc(N3CCC([C@@H](O)c4ccccc4-c4ccc(Cl)cc4)CC3)cc2)cc1S(=O)(=O)C(F)(F)F [AZD4320] + C[C@@H](Nc1cc(F)cc(F)c1)c1cc(C(=O)N(C)C)cc2c(=O)cc(N3CCOCC3)oc12 [AZD8186] (first compound max 1 µM, 7x7, partner max 3 µM)	-0.101	-0.008	-0.0212	-0.0027	0.0139	0.0343	1	0.919	0.511	0.924	0.661	0.992	0.63	0.373	0.336	0.938	0.258	0.474	0.404
CN(CCO)CC[C@H](CSc1ccccc1)Nc1ccc(S(=O)(=O)NC(=O)c2ccc(N3CCC([C@@H](O)c4ccccc4-c4ccc(Cl)cc4)CC3)cc2)cc1S(=O)(=O)C(F)(F)F [AZD4320] + Cn1cnc2c(F)c(Nc3ccc(Br)cc3Cl)c(C(=O)NOCCO)cc21 [Selumetinib] (first compound max 1 µM, 7x7, partner max 3 µM)	0.0907	-0.0001	0.0449	0.0771	0.0376	0.0624	1	0.886	0.488	0.921	0.543	0.998	0.601	0.533	0.485	0.956	0.209	0.656	0.427
Cc1cc2ncnn2cc1Nc1ncc2c(n1)n(C1CCOCC1)c(=O)n2C [AZD7648] + C=CCn1c(=O)c2cnc(Nc3ccc(N4CCN(C)CC4)cc3)nc2n1-c1cccc(C(C)(C)O)n1 [AZD1775] (first compound max 10 µM, partner max 1 µM)	-0.0029	-0.0069	0.0368	-0.0086	-0.0149	-0.0206	0.867	0.45	0.893	0.832	0.674	0.424	0.52	0.613	0.91	0.382	0.569	0.288	0.473
Cc1cc2ncnn2cc1Nc1ncc2c(n1)n(C1CCOCC1)c(=O)n2C [AZD7648] + CCN(CCO)CCCOc1ccc2c(Nc3cc(CC(=O)Nc4cccc(F)c4)[nH]n3)ncnc2c1 [AZD2811] (first compound max 10 µM, 7x7, partner max 1 µM)	-0.0176	0.0064	-0.0065	0.113	-0.0491	-0.0151	0.97	0.377	0.242	0.312	0.51	0.445	0.234	0.41	0.325	0.182	0.506	0.14	0.293
Cc1cc2ncnn2cc1Nc1ncc2c(n1)n(C1CCOCC1)c(=O)n2C [AZD7648] + CN(C)CCCOc1ccc(-c2ccc3ncc4c(c3c2)n(C2CCOCC2)c(=O)n4C)cn1 [AZD0156] (first compound max 10 µM, 7x7, partner max 1 µM)	0.0335	-0.0129	0.0329	0.0367	0.0203	0.0206	0.321	0.38	0.225	0.34	0.329	0.299	0.221	0.32	0.221	0.0818	0.371	0.186	0.27
Cc1cc2ncnn2cc1Nc1ncc2c(n1)n(C1CCOCC1)c(=O)n2C [AZD7648] + C[C@@H]1COCCN1C2=NC(=NC(=C2)C3(CC3)[S@](=N)(=O)C)C4=C5C=CNC5=NC=C4 [AZD6738] (first compound max 10 µM, 7x7, partner max 10 µM)	-0.0143	-0.0345	0.0336	0.0229	-0.0062	0.0198	0.925	0.824	0.893	0.871	0.379	0.383	0.527	0.689	0.827	0.302	0.612	0.138	0.443
COc1cc2c(cc1OCCCCCOc1cc3c(cc1OC)C(=O)N1C=C(C)C[C@H]1C=N3)N=C[C@@H]1CC(C)=CN1C2=O [SG3199] + O=C(c1cc(Cc2n[nH]c(=O)c3ccccc23)ccc1F)N1CCN(C(=O)C2CC2)CC1 [Olaparib] (first compound max 0.001 µM, 7x7, partner max 10 µM)	-0.0211	-0.0623	-0.0099	-0.0086	-0.0795	-0.0313	0.337	0.325	0	0.636	0.32	0.125	0.14	0.196	0.187	0.152	0.14	0.136	0.0893
